The inhibition is the change of the read-out against control, counted positive when it falls. Higher therefore signals a strong effect. One may read the IC50 as the point on the concentration scale where inhibition reaches its midpoint.

The results in this text go back to ChEMBL document CHEMBL5230112, “Covalent inhibitors of GAPDH: From unspecific warheads to selective compounds” (Eur J Med Chem, 2020).

Assay [1] deals with Glyceraldehyde-3-phosphate dehydrogenase (Oryctolagus cuniculus) (UniProt P46406). Nature of the assay: Inhibition of rabbit muscle GAPDH at 0.5 mM incubated for 24 hrs relative to control.
Assay [2] deals with Saccharomyces cerevisiae. Briefly: Irreversible inhibition of yeast GAPDH holoenzyme.
Assay [3] deals with T1, Glyceraldehyde-3-phosphate dehydrogenase (Homo sapiens, UniProt P04406). Nature of the assay: Inhibition of human GAPDH.
Target sequence in this assay (P04406 2-335 limits assumed): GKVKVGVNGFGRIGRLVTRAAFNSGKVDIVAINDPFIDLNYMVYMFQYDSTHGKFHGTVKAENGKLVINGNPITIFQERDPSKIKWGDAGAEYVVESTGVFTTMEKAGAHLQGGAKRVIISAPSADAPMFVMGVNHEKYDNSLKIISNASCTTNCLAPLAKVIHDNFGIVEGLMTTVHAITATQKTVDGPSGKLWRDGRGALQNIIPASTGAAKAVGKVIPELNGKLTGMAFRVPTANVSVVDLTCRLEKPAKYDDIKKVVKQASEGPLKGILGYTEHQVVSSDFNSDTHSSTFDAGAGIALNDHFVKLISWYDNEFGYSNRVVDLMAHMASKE
Assay [4] deals with T1, Glyceraldehyde-3-phosphate dehydrogenase. Nature of the assay: Inhibition of GAPDH (unknown origin) measured after 1 hr.
Target sequence in this assay (P04406 whole entry): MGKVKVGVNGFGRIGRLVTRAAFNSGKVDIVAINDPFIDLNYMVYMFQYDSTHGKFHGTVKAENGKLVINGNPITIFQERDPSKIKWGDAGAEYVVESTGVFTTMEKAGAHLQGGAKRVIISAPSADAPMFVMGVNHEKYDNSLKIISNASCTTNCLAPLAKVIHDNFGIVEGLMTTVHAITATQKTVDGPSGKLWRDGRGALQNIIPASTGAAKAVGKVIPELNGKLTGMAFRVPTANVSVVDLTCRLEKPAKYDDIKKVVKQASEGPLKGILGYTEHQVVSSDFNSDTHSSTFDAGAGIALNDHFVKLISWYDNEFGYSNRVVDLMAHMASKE
Assay [5] shares this target. Nature of the assay: Irreversible inhibition of GAPDH (unknown origin) assessed as ratio of Kinact/Ki.
Target sequence in this assay (P04406 2-335 limits assumed): as the sequence (P04406 2-335 limits assumed) above
For assay [6] the target is unchanged. Nature of the assay: Irreversible inhibition of GAPDH (unknown origin) assessed as ratio of Kinact/Ki at fast phase.
Target sequence in this assay (P04406 2-335 limits assumed): as above
For assay [7] the target is unchanged. Briefly: Irreversible inhibition of GAPDH (unknown origin) assessed as ratio of Kinact/Ki at slow phase.
Target sequence in this assay (P04406 2-335 limits assumed): as above

Each structure is given as a SMILES string.

Glyceraldehyde-3-phosphate dehydrogenase (Oryctolagus cuniculus), sequence (P46406 whole entry, looked up): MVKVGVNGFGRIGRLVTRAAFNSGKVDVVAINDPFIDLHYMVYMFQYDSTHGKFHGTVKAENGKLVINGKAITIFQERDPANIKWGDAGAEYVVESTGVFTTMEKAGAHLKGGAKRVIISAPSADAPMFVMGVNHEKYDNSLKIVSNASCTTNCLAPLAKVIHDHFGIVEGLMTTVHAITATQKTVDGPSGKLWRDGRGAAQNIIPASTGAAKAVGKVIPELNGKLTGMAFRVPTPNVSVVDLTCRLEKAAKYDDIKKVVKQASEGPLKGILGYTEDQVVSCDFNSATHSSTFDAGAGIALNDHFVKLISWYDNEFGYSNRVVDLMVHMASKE

Turning to `O=C(O)/C=C/C(=O)O`, in assay [1], the inhibition came to 20%. For the compound `O=C(CBr)P(=O)(O)O`, the K is 5.4 10^4/M/s in assay [2] and 3.5 10^4/M/s in assay [3].

Turning to `CCC(O)/C=C/C=O` (stereo not given), the IC50 in assay [4] was 39.1 µM. Regarding `C=CC#N`, the Ratio in assay [5] is 9.2 M⁻¹ s⁻¹. `COC(=O)/C=C/C(=O)OC`: the Ratio stood at 18.3 M⁻¹ s⁻¹ in assay [6] and 10.9 M⁻¹ s⁻¹ in assay [7]. For the compound `O=C(CCl)P(=O)(O)O`, the K in assay [2] is 2.8 10^4/M/s. Turning to `C=CC(C)=O`, in assay [5], the Ratio is 128 M⁻¹ s⁻¹. The compound `CCCCCC(O)/C=C/C=O` (stereo not given) [4-HYDROXYNON-2-ENAL] yielded an IC50 in assay [4] of 50 µM.
